Test results published in ChEMBL document CHEMBL5046297, “Discovery of a Colon-Targeted Azo Prodrug of Tofacitinib through the Establishment of Colon-Specific Delivery Systems Constructed by 5-ASA-PABA-MAC and 5-ASA-PABA-Diamine for the Treatment of Ulcerative Colitis” (J Med Chem, 2022).

Legend:
[1] = Prodrug conversion in Sprague-Dawley rat colon content suspension assessed as tofacitinib release measured upto 8 hrs by HPLC analysis; type: ADME, tissue-based
[2] = Chemical stability in simulated intestinal fluid assessed as parent compound remaining incubated for 12 hrs by LC-MS/MS analysis; type: ADME, physicochemical; conditions: simulated gi fluid
[3] = Chemical stability of compound in pH 4.5 PBS buffer at 100 uM incubated for 24 hrs by HPLC analysis; type: physicochemical; conditions: pH 4.5, 24 h
[4] = Chemical stability of compound in pH 7.4 PBS buffer at 100 uM incubated for 24 hrs by HPLC analysis; type: physicochemical; conditions: pH 7.4, 24 h
[5] = Chemical stability of compound in pH 1.2 HCl buffer at 100 uM incubated for 24 hrs by HPLC analysis; type: physicochemical; conditions: pH 1.2, 24 h
[6] = Chemical stability in simulated gastric fluid assessed as parent compound remaining incubated for 12 hrs by LC-MS/MS analysis; type: ADME, physicochemical; conditions: simulated gi fluid

Row | Drug metabolism [1] [mmol/L/h] | Stability [2] | Stability [3] | Stability [4] | Stability [5] | Stability [6] | SMILES
1 | 2.87 | Stable | Stable | Stable | Stable | Stable | C[C@@H]1CCN(C(=O)CC#N)C[C@@H]1N(C)c1ncnc2c1ccn2CNC(=O)OCc1ccc(/N=N/c2ccc(O)c(C(=O)O)c2)cc1
2 | 2.72 | Stable | Stable | Stable | Stable | Stable | Cc1cc(/N=N/c2ccc(O)c(C(=O)O)c2)ccc1COC(=O)N(C)CCN(C)C(=O)n1ccc2c(N(C)[C@H]3CN(C(=O)CC#N)CC[C@H]3C)ncnc21
3 | 2.46 | Stable | Stable | Stable | Stable | Stable | COc1cc(COC(=O)N(C)CCN(C)C(=O)n2ccc3c(N(C)[C@H]4CN(C(=O)CC#N)CC[C@H]4C)ncnc32)ccc1/N=N/c1ccc(O)c(C(=O)O)c1
4 | 2.114 | Stable | Stable | Stable | Stable | Stable | C[C@@H]1CCN(C(=O)CC#N)C[C@@H]1N(C)c1ncnc2c1ccn2C(=O)N(C)CCN(C)C(=O)OCc1ccc(/N=N/c2ccc(O)c(C(=O)O)c2)cc1
